Assays:
Bel-7402 = experiment: Antiproliferative activity against human Bel-7402 cells assessed as reduction in cell viability incubated for 72 hrs by MTT assay; format: functional, cell-based; settings: Bel-7402, 72 h
SMMC-7721 = experiment: Antiproliferative activity against human SMMC-7721 cells assessed as reduction in cell viability incubated for 72 hrs by MTT assay; format: functional, cell-based; settings: SMMC-7721, 72 h
SNU-387 = experiment: Antiproliferative activity against human SNU-387 cells assessed as reduction in cell viability incubated for 72 hrs by MTT assay; format: functional, cell-based; settings: SNU-387, 72 h
HepG2 = experiment: Antiproliferative activity against human HepG2 cells assessed as reduction in cell viability incubated for 72 hrs by MTT assay; format: functional, cell-based; settings: HepG2, 72 h
Hep 3B2 = experiment: Antiproliferative activity against human Hep3B cells assessed as reduction in cell viability incubated for 72 hrs by MTT assay; format: functional, cell-based
Bel7402/5-FU = experiment: Antiproliferative activity against human BEL-7402/5-FU cells overexpressing 14-3-3 eta assessed as reduction in cell viability incubated for 72 hrs by MTT assay; format: functional, cell-based
14-3-3 protein eta = target: T1, 14-3-3 protein eta (Homo sapiens, UniProt Q04917); experiment: Binding affinity to 14-3-3 eta (unknown origin) assessed as dissociation constant by biolayer interferometry assay
T1 sequence (Q04917 whole entry): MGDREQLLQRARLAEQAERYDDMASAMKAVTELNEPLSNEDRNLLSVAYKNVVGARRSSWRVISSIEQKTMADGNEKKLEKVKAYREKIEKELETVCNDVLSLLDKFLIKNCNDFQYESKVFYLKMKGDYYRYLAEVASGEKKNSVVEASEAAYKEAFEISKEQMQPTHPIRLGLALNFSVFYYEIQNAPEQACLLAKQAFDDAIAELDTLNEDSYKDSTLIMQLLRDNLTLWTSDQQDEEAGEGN

Row | SMILES | IC50 (Bel-7402) | IC50 (SMMC-7721) | IC50 (SNU-387) | IC50 (HepG2) | IC50 (Bel7402/5-FU) | Kd (14-3-3 protein eta) | IC50 (Hep 3B2)
1 | COc1cccc(CNCc2c(C(=O)O)n(Cc3ccccc3F)c3ccccc23)c1 | > 50 µM |  |  |  |  |  | 
2 | COc1ccc(Cn2c(C(=O)O)c(CNC(=O)c3cccc(OC)c3)c3ccc(C)cc32)cc1 | > 50 µM |  |  |  |  | 56 µM | 
3 | COc1cccc(CNCc2c(C(=O)O)n(Cc3ccccc3F)c3cc(C)ccc23)c1 | > 50 µM |  |  |  |  | > 200 µM | 
4 | COc1ccc(Cn2c(C(=O)O)c(CNCc3ccc(O)c(OC)c3)c3ccccc32)cc1 | > 50 µM |  |  |  |  | 140 µM | 
5 | COc1ccc(Cn2c(C(=O)O)c(CNCc3cccc(OC)c3)c3ccc(C(F)F)cc32)cc1 | > 50 µM |  |  |  |  |  | 
6 | COc1cccc(CNCc2c(C(=O)O)n(Cc3ccc(O)cc3)c3ccccc23)c1 | > 50 µM |  |  |  |  |  | 
7 | COc1cccc(CNCc2c(C(=O)O)n(Cc3ccc(O)cc3)c3cc(C)ccc23)c1 | > 50 µM |  |  |  |  |  | 
8 | O=[As][As+](=O)[O-] (centres undefined) [ARSENIC TRIOXIDE] |  |  |  |  |  | 110 µM | 
9 | COc1ccc(Cn2c(C(=O)O)c(CNCc3cc(OC)ccc3O)c3ccc(C)cc32)cc1 | > 50 µM |  |  |  |  |  | 
10 | COc1cccc(CNCc2c(C(=O)O)n(Cc3ccc(F)cc3)c3ccccc23)c1 | > 50 µM |  |  |  |  | 160 µM | 
11 | COc1ccc(Cn2c(C(=O)O)c(CNCc3cccc(OC)c3)c3ccc(C(F)(F)F)cc32)cc1 | > 50 µM |  |  |  |  |  | 
12 | COc1cccc(CNCc2c(C(=O)O)n(Cc3ccccc3)c3ccccc23)c1 | > 50 µM |  |  |  |  |  | 

Further lines, with some results ahead:

Row | IC50 (Bel-7402) | IC50 (SMMC-7721) | IC50 (SNU-387) | IC50 (HepG2) | IC50 (Bel7402/5-FU) | Kd (14-3-3 protein eta) | SMILES | IC50 (Hep 3B2)
13 | 33 µM | 11 µM | 20.1 µM | 15.4 µM | 7.47 µM | > 200 µM | COc1ccc(Cn2c(C(=O)O)c(CN(C)Cc3cccc(OC)c3)c3ccc(C)cc32)cc1 | 14.5 µM
14 | > 50 µM |  |  |  |  |  | COc1ccc(Cn2c(C(=O)O)c(CNCc3cccc(O)c3)c3ccccc32)cc1 | 
15 | 8.38 µM | 5.83 µM | 5.4 µM | 3.66 µM | 7.9 µM |  | COc1ccc(Cn2c(C(=O)O)c(CNCc3ccc(O)c(OC)c3)c3ccc(C(C)C)cc32)cc1 | 4.71 µM
16 | 6.03 µM | 4.88 µM | 12.3 µM | 3.3 µM | 13.3 µM |  | CNC(=O)c1cc(Oc2ccc(NC(=O)Nc3ccc(Cl)c(C(F)(F)F)c3)cc2)ccn1 [SORAFENIB] | 5.49 µM
17 | 21.5 µM | 6.27 µM | 14.3 µM | 14 µM | 9.33 µM |  | COc1cccc(CNCc2c(C(=O)O)n(Cc3ccc(C)cc3)c3ccccc23)c1 | 14.5 µM
18 | 9.27 µM | 5.03 µM | 6.86 µM | 4.92 µM | 15.2 µM | 22 µM | COc1ccc(Cn2c(C(=O)O)c(CNCc3cccc(O)c3)c3ccc(C(C)C)cc32)cc1 | 6.6 µM
19 | 9.57 µM | 11.3 µM | 9.01 µM | 7.4 µM | > 50 µM |  | COc1cccc(CNCc2c(C(=O)O)n(Cc3ccc(N)cc3)c3cc(C(C)C)ccc23)c1 | 11.2 µM
20 | 5.59 µM | 3.23 µM | 6.09 µM | 3.3 µM | 5.21 µM | 37 µM | COc1cccc(CNCc2c(C(=O)O)n(Cc3ccccc3F)c3cc(C(C)C)ccc23)c1 | 5.19 µM
21 | 19.8 µM | 34.8 µM | 9.91 µM | 4.52 µM | > 50 µM |  | COc1ccc(Cn2c(C(=O)O)c(CNCc3cccc(O)c3)c3ccc(C)cc32)cc1 | 11.8 µM
22 | 12.5 µM | 4.72 µM | 8.17 µM | 5.21 µM | 12.1 µM |  | COc1cccc(CNCc2c(C(=O)O)n(Cc3ccccc3)c3cc(C)ccc23)c1 | 7.31 µM
23 | 9.83 µM |  |  |  |  |  | COc1ccc(Cn2c(C(=O)O)c(CNCc3cccc(OC)c3)c3ccc(C)cc32)cc1 | 
24 | 58.9 µM |  |  |  |  |  | CCNC(=O)c1c(CNCc2ccc(OC)cc2)c2ccccc2n1Cc1ccc(OC)cc1 | 
25 | 5.9 µM | 3.53 µM | 5.09 µM | 3.18 µM | 5.92 µM | 55 µM | COc1cccc(CNCc2c(C(=O)O)n(Cc3ccccc3)c3cc(C(C)C)ccc23)c1 | 4.11 µM
26 | 5.67 µM | 3.44 µM | 5.29 µM | 5.05 µM | 7.31 µM |  | COc1cccc(CNCc2c(C(=O)O)n(Cc3ccc(C)cc3)c3cc(C)ccc23)c1 | 6.33 µM
27 | 13.3 µM | 7.73 µM | 6.15 µM | 3.74 µM | > 50 µM | > 200 µM | COc1ccc(Cn2c(C(=O)O)c(CNCc3ccc(O)c(OC)c3)c3ccc(C)cc32)cc1 | 8.2 µM
28 | 52.9 µM |  |  |  |  |  | COc1ccc(Cn2c(C(=O)O)c(CNCc3cccc(OC)c3)c3ccccc32)cc1 | 
29 | 7.08 µM | 3.73 µM | 5.13 µM | 1.63 µM | > 50 µM | 74 µM | COc1cccc(CNCc2c(C(=O)O)n(Cc3ccc(O)cc3)c3cc(C(C)C)ccc23)c1 | 5.34 µM

Source: ChEMBL document CHEMBL5113390, “Design, synthesis and antitumor evaluation of novel 1H-indole-2-carboxylic acid derivatives targeting 14-3-3η protein” (Eur J Med Chem, 2022)
